Measurements: PubChem BioAssay AID1963430 (Molecular Pharmacology Branch, DTP, NCI, 2024)

Tested on: 521955-158-R2-J5-PDC complex spheroid growth, % test/control
Experiment: Anticancer human tumor 521955-158-R2-J5-PDC patient-derived pancreatic carcinoma cell line growth inhibition [Asc]
Details: for IC50: curve of first compound; for viability, T/C: stronger effect = lower value
Outline: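 Concentration series start at each agent's clinical Cmax, or at 10 microM when none is established, and drop in half-log steps; agents are applied alone or together to complex spheroids built with HUVEC and hMSC.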
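Also: spheroids exposed to agents for 7 days before readout.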
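For viability, T/C in this document: 100% = DMSO vehicle control viability.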

`NC(=O)C(=Cn1cnc(-c2cc(C(F)(F)F)cc(C(F)(F)F)c2)n1)c1cncnc1` + Cc1c(S(C)(=O)=O)c(-c2cc(F)cc(N3CCN(c4ccc(NS(=O)(=O)c5ccc(NC(CCN6CCC(C(=O)OCCCP(=O)(O)O)CC6)CSc6ccccc6)c(S(=O)(=O)C(F)(F)F)c5)cc4)CC3)c2)c(-c2ccc(Cl)cc2)n1C(C)C was tested, and the IC50 (second compound 0.1 µM) was 1.94 nM, the IC50 (second compound 0.316 µM) was < 0.949 nM and the IC50 (second compound 1 µM) was 1.36 nM. It also gave an IC50 (second compound 3.16 µM) of 1.25 nM, an IC50 (second compound 10 µM) of 25.3 nM and a viability, T/C (second compound 0.1 µM, first compound 0.000949 µM) of 77.2%. The viability, T/C (second compound 0.1 µM, first compound 0.003 µM) was 33.3%, the viability, T/C (second compound 0.1 µM, first compound 0.00949 µM) was 28.4% and the viability, T/C (second compound 0.1 µM, first compound 0.03 µM) was 20.9%. The viability, T/C (second compound 0.1 µM, first compound 0.0949 µM) was 22.3%, the viability, T/C (second compound 0.1 µM, first compound 0.3 µM) was 28% and the viability, T/C (second compound 0.316 µM, first compound 0.000949 µM) was 44.5%. It also gave a viability, T/C (second compound 0.316 µM, first compound 0.003 µM) of 48%, a viability, T/C (second compound 0.316 µM, first compound 0.00949 µM) of 30% and a viability, T/C (second compound 0.316 µM, first compound 0.03 µM) of 23.2%. For the same molecule, the viability, T/C (second compound 0.316 µM, first compound 0.0949 µM) was 17.2%, the viability, T/C (second compound 0.316 µM, first compound 0.3 µM) was 24.1% and the viability, T/C (second compound 1 µM, first compound 0.000949 µM) was 54.3%. The viability, T/C (second compound 1 µM, first compound 0.003 µM) was 40.5%, the viability, T/C (second compound 1 µM, first compound 0.00949 µM) was 21.4% and the viability, T/C (second compound 1 µM, first compound 0.03 µM) was 17.7%. The viability, T/C (second compound 1 µM, first compound 0.0949 µM) was 14.4%, the viability, T/C (second compound 1 µM, first compound 0.3 µM) was 14.8% and the viability, T/C (second compound 3.16 µM, first compound 0.000949 µM) was 53.2%. The viability, T/C (second compound 3.16 µM, first compound 0.003 µM) was 40%, the viability, T/C (second compound 3.16 µM, first compound 0.00949 µM) was 22.6% and the viability, T/C (second compound 3.16 µM, first compound 0.03 µM) was 13.5%. The viability, T/C (second compound 3.16 µM, first compound 0.0949 µM) was 9.75%, the viability, T/C (second compound 3.16 µM, first compound 0.3 µM) was 13.1% and the viability, T/C (second compound 10 µM, first compound 0.000949 µM) was 143%. It also gave a viability, T/C (second compound 10 µM, first compound 0.003 µM) of 106%, a viability, T/C (second compound 10 µM, first compound 0.00949 µM) of 91.4% and a viability, T/C (second compound 10 µM, first compound 0.03 µM) of 40.3%. The viability, T/C (second compound 10 µM, first compound 0.0949 µM) was 17.1% and the viability, T/C (second compound 10 µM, first compound 0.3 µM) was 10.8%.
`O=C(c1ccc(F)c(F)c1Nc1ccc(I)cc1F)N1CC(O)([C@@H]2CCCCN2)C1` + Cc1c(S(C)(=O)=O)c(-c2cc(F)cc(N3CCN(c4ccc(NS(=O)(=O)c5ccc(NC(CCN6CCC(C(=O)OCCCP(=O)(O)O)CC6)CSc6ccccc6)c(S(=O)(=O)C(F)(F)F)c5)cc4)CC3)c2)c(-c2ccc(Cl)cc2)n1C(C)C gave an IC50 (second compound 0.1 µM) of 103 nM, an IC50 (second compound 0.316 µM) of 21.3 nM and an IC50 (second compound 1 µM) of 32.2 nM. For the same molecule, the IC50 (second compound 3.16 µM) was 39.9 nM, the IC50 (second compound 10 µM) was 78.8 nM and the viability, T/C (second compound 0.1 µM, first compound 0.00316 µM) was 64%. For the same molecule, the viability, T/C (second compound 0.1 µM, first compound 0.01 µM) was 60.4%, the viability, T/C (second compound 0.1 µM, first compound 0.0316 µM) was 69.8% and the viability, T/C (second compound 0.1 µM, first compound 0.1 µM) was 45.5%. The viability, T/C (second compound 0.1 µM, first compound 0.316 µM) was 34.5%, the viability, T/C (second compound 0.1 µM, first compound 1 µM) was 19.9% and the viability, T/C (second compound 0.316 µM, first compound 0.00316 µM) was 66.9%. It also gave a viability, T/C (second compound 0.316 µM, first compound 0.01 µM) of 44.6%, a viability, T/C (second compound 0.316 µM, first compound 0.0316 µM) of 56.5% and a viability, T/C (second compound 0.316 µM, first compound 0.1 µM) of 37.8%. The viability, T/C (second compound 0.316 µM, first compound 0.316 µM) was 23.2%, the viability, T/C (second compound 0.316 µM, first compound 1 µM) was 13% and the viability, T/C (second compound 1 µM, first compound 0.00316 µM) was 82%. It also gave a viability, T/C (second compound 1 µM, first compound 0.01 µM) of 64.6%, a viability, T/C (second compound 1 µM, first compound 0.0316 µM) of 49.1% and a viability, T/C (second compound 1 µM, first compound 0.1 µM) of 37.6%. The viability, T/C (second compound 1 µM, first compound 0.316 µM) was 18.1%, the viability, T/C (second compound 1 µM, first compound 1 µM) was 5.29% and the viability, T/C (second compound 3.16 µM, first compound 0.00316 µM) was 61.2%. For the same molecule, the viability, T/C (second compound 3.16 µM, first compound 0.01 µM) was 75.1%, the viability, T/C (second compound 3.16 µM, first compound 0.0316 µM) was 50.8% and the viability, T/C (second compound 3.16 µM, first compound 0.1 µM) was 31.6%. For the same molecule, the viability, T/C (second compound 3.16 µM, first compound 0.316 µM) was 9.65%, the viability, T/C (second compound 3.16 µM, first compound 1 µM) was 5.32% and the viability, T/C (second compound 10 µM, first compound 0.00316 µM) was 169%. The viability, T/C (second compound 10 µM, first compound 0.01 µM) was 242%, the viability, T/C (second compound 10 µM, first compound 0.0316 µM) was 135% and the viability, T/C (second compound 10 µM, first compound 0.1 µM) was 36.1%. The viability, T/C (second compound 10 µM, first compound 0.316 µM) was 10.6% and the viability, T/C (second compound 10 µM, first compound 1 µM) was 2.76%.
With `C#Cc1c(F)ccc2cc(O)cc(-c3ncc4c(N5CC6CCC(C5)N6)nc(OCC56CCCN5CC(F)C6)nc4c3F)c12` (stereo not given) + CCN1C(C(=O)NC23CCC(C(=O)O)(CC2)CC3)C(c2cccc(Cl)c2F)C2(C(=O)Nc3cc(Cl)ccc32)C12CCCCC2 the IC50 (second compound 0.03 µM) was < 31.6 nM, the IC50 (second compound 0.0949 µM) was < 31.6 nM and the IC50 (second compound 0.3 µM) was < 31.6 nM. The IC50 (second compound 0.949 µM) was < 31.6 nM, the IC50 (second compound 3 µM) was 4990 nM and the viability, T/C (second compound 0.03 µM, first compound 0.0316 µM) was 53%. It also gave a viability, T/C (second compound 0.03 µM, first compound 0.1 µM) of 41.6%, a viability, T/C (second compound 0.03 µM, first compound 0.316 µM) of 33.2% and a viability, T/C (second compound 0.03 µM, first compound 1 µM) of 35.1%. The viability, T/C (second compound 0.03 µM, first compound 3.16 µM) was 35.5%, the viability, T/C (second compound 0.03 µM, first compound 10 µM) was 32% and the viability, T/C (second compound 0.0949 µM, first compound 0.0316 µM) was 48.1%. For the same molecule, the viability, T/C (second compound 0.0949 µM, first compound 0.1 µM) was 39.8%, the viability, T/C (second compound 0.0949 µM, first compound 0.316 µM) was 44.4% and the viability, T/C (second compound 0.0949 µM, first compound 1 µM) was 38%. For the same molecule, the viability, T/C (second compound 0.0949 µM, first compound 3.16 µM) was 41.7%, the viability, T/C (second compound 0.0949 µM, first compound 10 µM) was 43.9% and the viability, T/C (second compound 0.3 µM, first compound 0.0316 µM) was 45.9%. The viability, T/C (second compound 0.3 µM, first compound 0.1 µM) was 44%, the viability, T/C (second compound 0.3 µM, first compound 0.316 µM) was 39.9% and the viability, T/C (second compound 0.3 µM, first compound 1 µM) was 40.4%. For the same molecule, the viability, T/C (second compound 0.3 µM, first compound 3.16 µM) was 42.9%, the viability, T/C (second compound 0.3 µM, first compound 10 µM) was 39.2% and the viability, T/C (second compound 0.949 µM, first compound 0.0316 µM) was 42.7%. It also gave a viability, T/C (second compound 0.949 µM, first compound 0.1 µM) of 50.6%, a viability, T/C (second compound 0.949 µM, first compound 0.316 µM) of 56.3% and a viability, T/C (second compound 0.949 µM, first compound 1 µM) of 41.1%. It also gave a viability, T/C (second compound 0.949 µM, first compound 3.16 µM) of 54.8%, a viability, T/C (second compound 0.949 µM, first compound 10 µM) of 42.4% and a viability, T/C (second compound 3 µM, first compound 0.0316 µM) of 70.1%. For the same molecule, the viability, T/C (second compound 3 µM, first compound 0.1 µM) was 68.9%, the viability, T/C (second compound 3 µM, first compound 0.316 µM) was 66% and the viability, T/C (second compound 3 µM, first compound 1 µM) was 59.1%. For the same molecule, the viability, T/C (second compound 3 µM, first compound 3.16 µM) was 55.1% and the viability, T/C (second compound 3 µM, first compound 10 µM) was 43.8%.
